The source of these data is patent US20250179106A1, “Metal Bis(Imino) Aryl Compounds and Methods Thereof” (EXXONMOBIL CHEMICAL PATENTS INC., priority 2022, published 2025).

A short description of the data set: Solubility of catalysts in alkane solvent. Type of data set: physicochemical. Particulars: ambient temperature (20-25° C.). How it is done:
General considerations: Solubility studies for all catalysts were performed using material as synthesized, unless otherwise noted. Solvents used were sparged with nitrogen (30-60 minutes) and dried over 3 Å mole sieves. Unless stated otherwise, all measurements were performed at ambient temperature (20-25° C.).
A measured mass of solvent was added to a known amount of catalyst. After stirring for at least 30 minutes or more, the resulting mixture was filtered. The filtrate was concentrated is to dryness, and the remaining catalyst was weighed to provide the mass of dissolved catalyst. Solubility was calculated using the formula below.
Alternatively, for mixtures prepared at a low concentration (<0.25 wt %) which remained heterogeneous (visible solids or murky), the value may be reported as being “less than” the calculated value.
Formula used to calculate solubility is listed below.

In the case of `CCCC[Si](CCCC)(CCCC)CC(=Nc1c(C)cccc1C)c1cccc(C(C[Si](CCCC)(CCCC)CCCC)=Nc2c(C)cccc2C)n1.[Cl][Fe][Cl]` [Catalyst 3], the “Solubility (wt %)” value (solvent isohexane) is recorded as 4.2 wt %. For `CCCC[Si](CCCC)(CCCC)CC(=Nc1c(C)cc(Cl)cc1C)c1cccc(C(C[Si](CCCC)(CCCC)CCCC)=Nc2c(C)cc(Cl)cc2C)n1.[Cl][Fe][Cl]` [Catalyst 7], for the setting “solvent pentane”, the “Solubility (wt %)” value came out at 2.6 wt %. On the same count and under the same terms, under `CCCC[Si](CCCC)(CCCC)CC(=Nc1c(C)ccc(Cl)c1C)c1cccc(C(C[Si](CCCC)(CCCC)CCCC)=Nc2c(C)ccc(Cl)c2C)n1.[Cl][Fe][Cl]` [Catalyst 8] stands 1.7 wt %; under `CCCC[Si](CCCC)(CCCC)CC(=Nc1c(C)cc(C)cc1Cl)c1cccc(C(C[Si](CCCC)(CCCC)CCCC)=Nc2c(C)cc(C)cc2Cl)n1.[Cl][Fe][Cl]` [Catalyst 9], 0.15 wt %.
